Read-outs that look alike come from different tables or passages of the source.
Assays:
Assay in all cases: biochemical
SET1b Complex = SET1b Complex (Homo sapiens, UniProt Q9UPS6); parameters: gene SETD1B; Complex; protein methyltransferase selectivity panel, enzyme activity relative to DMSO controls, single concentration in duplicate; conditions: Substrate:=Core Histone
Description: (§1) We next assessed selectivity of MS67 against 22 protein methyltransferases (table S2) and a broad panel of common drug targets including 45 kinases (table S3) and 44 G protein–coupled receptors (GPCR), ion channels, and transporters (table S4). […] We subsequently determined that MS67 had moderate binding affinity (Ki = 1.0 ± 0.8 μM) to Sigma 2 receptor (fig. S10).

Beta3 = target: T1, Beta3 (Homo sapiens, UniProt P13945); parameters: GPCR, ion channel and transporter panel, per cent inhibition of binding, mean of four
T1 construct: gene ADRB3
Description: as §1

KOR = target: T2, KOR (Homo sapiens, UniProt P41145); parameters: GPCR, ion channel and transporter panel, per cent inhibition of binding, mean of four
T2 construct: gene OPRK1
Description: as §1

5-HT5A = target: T3, 5-HT5A (Homo sapiens, UniProt P47898); parameters: GPCR, ion channel and transporter panel, per cent inhibition of binding, mean of four
T3 construct: gene HTR5A
Description: as §1

DAT = target: T4, DAT (Homo sapiens, UniProt Q01959); parameters: GPCR, ion channel and transporter panel, per cent inhibition of binding, mean of four
T4 construct: gene SLC6A3
Description: as §1

Beta2 = target: T5, Beta2 (Homo sapiens, UniProt P07550); parameters: GPCR, ion channel and transporter panel, per cent inhibition of binding, mean of four
T5 construct: gene ADRB2
T5 sequence (P07550 whole entry): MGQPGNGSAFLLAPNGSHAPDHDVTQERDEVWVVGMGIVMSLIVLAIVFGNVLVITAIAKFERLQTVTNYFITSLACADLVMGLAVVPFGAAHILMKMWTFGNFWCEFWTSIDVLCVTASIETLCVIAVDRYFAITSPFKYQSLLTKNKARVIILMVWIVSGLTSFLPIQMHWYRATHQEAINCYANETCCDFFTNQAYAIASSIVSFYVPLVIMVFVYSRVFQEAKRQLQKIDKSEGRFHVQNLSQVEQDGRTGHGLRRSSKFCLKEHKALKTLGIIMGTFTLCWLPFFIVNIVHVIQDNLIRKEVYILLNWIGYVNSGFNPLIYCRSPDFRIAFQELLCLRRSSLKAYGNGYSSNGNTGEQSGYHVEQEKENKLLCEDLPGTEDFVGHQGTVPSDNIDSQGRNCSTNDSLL
Description: as §1

5-HT3 = target: T6, 5-HT3 (Homo sapiens, UniProt P46098); parameters: GPCR, ion channel and transporter panel, per cent inhibition of binding, mean of four
T6 construct: gene HTR3A
Description: as §1

5-HT1D = target: T7, 5-HT1D (Homo sapiens, UniProt P28221); parameters: GPCR, ion channel and transporter panel, per cent inhibition of binding, mean of four
T7 construct: gene HTR1D
Description: as §1

Sigma 1 = target: T8, Sigma 1 (Homo sapiens, UniProt Q99720); parameters: GPCR, ion channel and transporter panel, per cent inhibition of binding, mean of four
T8 construct: gene SIGMAR1
Description: as §1

5-HT2B = target: T9, 5-HT2B (Homo sapiens, UniProt P41595); parameters: GPCR, ion channel and transporter panel, per cent inhibition of binding, mean of four
T9 construct: gene HTR2B
Description: as §1

M2 = target: T10, M2 (Homo sapiens, UniProt P08172); parameters: GPCR, ion channel and transporter panel, per cent inhibition of binding, mean of four
T10 construct: gene CHRM2
Description: as §1

D4 = target: T11, D4 (Homo sapiens, UniProt P21917); parameters: GPCR, ion channel and transporter panel, per cent inhibition of binding, mean of four
T11 construct: gene DRD4
Description: as §1

M4 = target: T12, M4 (Homo sapiens, UniProt P08173); parameters: GPCR, ion channel and transporter panel, per cent inhibition of binding, mean of four
T12 construct: gene CHRM4
Description: as §1

D3 = target: T13, D3 (Homo sapiens, UniProt P35462); parameters: GPCR, ion channel and transporter panel, per cent inhibition of binding, mean of four
T13 construct: gene DRD3
Description: as §1

Beta1 = target: T14, Beta1 (Homo sapiens, UniProt P08588); parameters: GPCR, ion channel and transporter panel, per cent inhibition of binding, mean of four
T14 construct: gene ADRB1
T14 sequence (P08588 whole entry): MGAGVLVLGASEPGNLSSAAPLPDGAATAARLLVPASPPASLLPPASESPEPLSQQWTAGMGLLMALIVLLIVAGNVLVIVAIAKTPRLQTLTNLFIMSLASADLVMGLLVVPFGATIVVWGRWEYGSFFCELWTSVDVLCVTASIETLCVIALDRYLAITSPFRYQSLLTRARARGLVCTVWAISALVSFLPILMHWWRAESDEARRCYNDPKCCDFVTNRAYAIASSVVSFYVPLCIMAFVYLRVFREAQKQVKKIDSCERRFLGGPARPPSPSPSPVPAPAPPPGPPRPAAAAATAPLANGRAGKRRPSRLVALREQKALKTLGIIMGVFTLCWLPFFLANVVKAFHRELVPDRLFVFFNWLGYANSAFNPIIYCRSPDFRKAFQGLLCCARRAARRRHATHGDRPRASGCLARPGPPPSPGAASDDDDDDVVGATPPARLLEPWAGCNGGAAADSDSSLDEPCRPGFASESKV
Description: as §1

SERT = target: T15, SERT (Homo sapiens, UniProt P31645); parameters: GPCR, ion channel and transporter panel, per cent inhibition of binding, mean of four
T15 construct: gene SLC6A4
Description: as §1

M5 = target: T16, M5 (Homo sapiens, UniProt P08912); parameters: GPCR, ion channel and transporter panel, per cent inhibition of binding, mean of four
T16 construct: gene CHRM5
Description: as §1

5-HT1A = target: T17, 5-HT1A (Homo sapiens, UniProt P08908); parameters: GPCR, ion channel and transporter panel, per cent inhibition of binding, mean of four
T17 construct: gene HTR1A
T17 sequence (P08908 whole entry): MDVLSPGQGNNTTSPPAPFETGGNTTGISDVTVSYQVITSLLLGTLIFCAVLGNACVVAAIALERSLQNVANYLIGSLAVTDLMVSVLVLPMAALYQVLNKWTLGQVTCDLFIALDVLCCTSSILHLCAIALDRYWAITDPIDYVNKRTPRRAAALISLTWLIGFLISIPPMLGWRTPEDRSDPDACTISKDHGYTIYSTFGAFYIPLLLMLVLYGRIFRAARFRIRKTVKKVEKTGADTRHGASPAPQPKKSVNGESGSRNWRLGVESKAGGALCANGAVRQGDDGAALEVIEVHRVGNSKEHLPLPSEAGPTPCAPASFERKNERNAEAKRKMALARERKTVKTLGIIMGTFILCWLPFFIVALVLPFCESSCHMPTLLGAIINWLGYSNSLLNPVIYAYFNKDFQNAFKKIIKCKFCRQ
Description: as §1

MOR = target: T18, MOR (Homo sapiens, UniProt P35372); parameters: GPCR, ion channel and transporter panel, per cent inhibition of binding, mean of four
T18 construct: gene OPRM1
Description: as §1

D2 = target: T19, D2 (Homo sapiens, UniProt P14416); parameters: GPCR, ion channel and transporter panel, per cent inhibition of binding, mean of four
T19 construct: gene DRD2
Description: as §1

5-HT2A = target: T20, 5-HT2A (Homo sapiens, UniProt P28223); parameters: GPCR, ion channel and transporter panel, per cent inhibition of binding, mean of four
T20 construct: gene HTR2A
Description: as §1

5-HT1E = target: T21, 5-HT1E (Homo sapiens, UniProt P28566); parameters: GPCR, ion channel and transporter panel, per cent inhibition of binding, mean of four
T21 construct: gene HTR1E
Description: as §1

H3 = target: T22, H3 (Homo sapiens, UniProt Q9Y5N1); parameters: GPCR, ion channel and transporter panel, per cent inhibition of binding, mean of four
T22 construct: gene HRH3
Description: as §1

H4 = target: T23, H4 (Homo sapiens, UniProt Q9H3N8); parameters: GPCR, ion channel and transporter panel, per cent inhibition of binding, mean of four
T23 construct: gene HRH4
Description: as §1

5-HT1B = target: T24, 5-HT1B (Homo sapiens, UniProt P28222); parameters: GPCR, ion channel and transporter panel, per cent inhibition of binding, mean of four
T24 construct: gene HTR1B
T24 sequence (P28222 whole entry): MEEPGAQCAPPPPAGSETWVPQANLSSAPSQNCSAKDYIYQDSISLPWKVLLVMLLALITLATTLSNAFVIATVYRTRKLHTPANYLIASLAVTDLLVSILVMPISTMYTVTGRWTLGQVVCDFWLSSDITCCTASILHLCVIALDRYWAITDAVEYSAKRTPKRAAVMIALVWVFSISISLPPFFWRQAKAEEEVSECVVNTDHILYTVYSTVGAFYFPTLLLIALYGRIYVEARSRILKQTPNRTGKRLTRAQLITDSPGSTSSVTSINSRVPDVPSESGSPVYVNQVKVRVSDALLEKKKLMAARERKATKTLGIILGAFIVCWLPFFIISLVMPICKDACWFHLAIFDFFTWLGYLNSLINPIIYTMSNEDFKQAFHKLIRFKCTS
Description: as §1

Chain of SET1b Complex (Q15291 whole entry): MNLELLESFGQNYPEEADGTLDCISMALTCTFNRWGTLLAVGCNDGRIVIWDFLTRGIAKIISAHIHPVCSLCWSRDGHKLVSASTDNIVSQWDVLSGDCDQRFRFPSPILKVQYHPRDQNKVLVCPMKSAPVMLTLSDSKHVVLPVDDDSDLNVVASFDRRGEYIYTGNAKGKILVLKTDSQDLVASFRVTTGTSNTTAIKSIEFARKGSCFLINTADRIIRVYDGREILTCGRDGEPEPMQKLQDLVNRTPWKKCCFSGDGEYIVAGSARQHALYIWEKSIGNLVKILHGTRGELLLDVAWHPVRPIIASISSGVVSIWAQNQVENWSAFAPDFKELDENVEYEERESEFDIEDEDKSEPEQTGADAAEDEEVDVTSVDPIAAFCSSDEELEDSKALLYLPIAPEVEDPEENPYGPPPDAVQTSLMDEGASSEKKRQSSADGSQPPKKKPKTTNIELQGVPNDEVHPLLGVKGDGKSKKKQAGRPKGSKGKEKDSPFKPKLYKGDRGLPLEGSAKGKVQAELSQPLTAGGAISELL
Chain of SET1b Complex (Q9UPS6 whole entry): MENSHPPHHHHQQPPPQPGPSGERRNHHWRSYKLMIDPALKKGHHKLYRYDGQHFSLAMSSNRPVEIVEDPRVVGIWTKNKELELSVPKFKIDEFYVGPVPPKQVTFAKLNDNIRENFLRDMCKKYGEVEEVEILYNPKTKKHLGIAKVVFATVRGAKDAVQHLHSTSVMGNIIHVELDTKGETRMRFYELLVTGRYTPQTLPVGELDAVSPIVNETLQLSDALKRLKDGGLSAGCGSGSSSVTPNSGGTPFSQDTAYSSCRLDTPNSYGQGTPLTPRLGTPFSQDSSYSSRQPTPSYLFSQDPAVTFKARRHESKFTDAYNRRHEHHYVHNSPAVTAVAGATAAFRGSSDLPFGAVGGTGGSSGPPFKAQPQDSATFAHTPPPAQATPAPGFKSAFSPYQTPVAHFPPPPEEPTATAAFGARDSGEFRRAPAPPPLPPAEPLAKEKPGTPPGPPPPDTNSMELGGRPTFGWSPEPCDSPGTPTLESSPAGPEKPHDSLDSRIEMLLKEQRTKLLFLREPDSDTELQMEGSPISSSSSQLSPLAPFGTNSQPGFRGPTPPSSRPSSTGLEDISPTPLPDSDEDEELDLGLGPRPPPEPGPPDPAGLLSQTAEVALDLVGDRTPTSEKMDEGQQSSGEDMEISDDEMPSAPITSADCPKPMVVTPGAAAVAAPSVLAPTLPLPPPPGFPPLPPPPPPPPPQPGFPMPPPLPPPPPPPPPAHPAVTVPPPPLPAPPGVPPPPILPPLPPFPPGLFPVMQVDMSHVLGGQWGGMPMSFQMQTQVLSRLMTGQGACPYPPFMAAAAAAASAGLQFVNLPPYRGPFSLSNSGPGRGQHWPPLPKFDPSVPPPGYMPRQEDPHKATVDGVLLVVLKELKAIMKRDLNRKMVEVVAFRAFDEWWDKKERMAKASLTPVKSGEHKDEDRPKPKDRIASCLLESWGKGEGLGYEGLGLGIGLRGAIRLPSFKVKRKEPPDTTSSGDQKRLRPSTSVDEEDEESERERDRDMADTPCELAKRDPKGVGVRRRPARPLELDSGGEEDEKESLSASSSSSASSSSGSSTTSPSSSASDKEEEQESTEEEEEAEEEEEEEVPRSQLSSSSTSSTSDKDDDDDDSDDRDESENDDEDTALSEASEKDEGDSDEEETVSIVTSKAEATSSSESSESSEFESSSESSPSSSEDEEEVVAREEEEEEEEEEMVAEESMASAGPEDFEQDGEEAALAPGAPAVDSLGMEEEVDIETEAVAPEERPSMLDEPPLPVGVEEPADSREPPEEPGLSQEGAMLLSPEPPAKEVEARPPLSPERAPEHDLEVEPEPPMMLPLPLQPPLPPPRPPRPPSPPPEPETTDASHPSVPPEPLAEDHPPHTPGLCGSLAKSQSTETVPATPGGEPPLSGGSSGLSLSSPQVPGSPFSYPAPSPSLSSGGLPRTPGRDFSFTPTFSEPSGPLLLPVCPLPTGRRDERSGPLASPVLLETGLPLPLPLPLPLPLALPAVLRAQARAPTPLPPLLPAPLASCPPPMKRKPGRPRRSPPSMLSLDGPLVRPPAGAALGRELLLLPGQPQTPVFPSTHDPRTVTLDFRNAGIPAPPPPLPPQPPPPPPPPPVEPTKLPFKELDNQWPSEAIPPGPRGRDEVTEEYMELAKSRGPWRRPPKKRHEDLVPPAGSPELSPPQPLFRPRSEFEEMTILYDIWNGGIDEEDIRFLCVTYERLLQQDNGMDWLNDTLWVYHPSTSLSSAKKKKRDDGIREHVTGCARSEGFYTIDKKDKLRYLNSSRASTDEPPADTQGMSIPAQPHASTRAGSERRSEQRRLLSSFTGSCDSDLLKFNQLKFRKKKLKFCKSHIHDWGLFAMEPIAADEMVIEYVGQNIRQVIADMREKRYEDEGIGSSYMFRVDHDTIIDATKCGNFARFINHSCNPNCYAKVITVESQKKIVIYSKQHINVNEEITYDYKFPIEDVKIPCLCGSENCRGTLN
Chain of SET1b Complex (Q9C005 whole entry, further chain): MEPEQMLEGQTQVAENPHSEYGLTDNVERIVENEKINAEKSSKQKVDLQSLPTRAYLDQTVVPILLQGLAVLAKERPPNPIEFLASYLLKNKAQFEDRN
Chain of SET1b Complex (Q9UBL3 whole entry, further chain): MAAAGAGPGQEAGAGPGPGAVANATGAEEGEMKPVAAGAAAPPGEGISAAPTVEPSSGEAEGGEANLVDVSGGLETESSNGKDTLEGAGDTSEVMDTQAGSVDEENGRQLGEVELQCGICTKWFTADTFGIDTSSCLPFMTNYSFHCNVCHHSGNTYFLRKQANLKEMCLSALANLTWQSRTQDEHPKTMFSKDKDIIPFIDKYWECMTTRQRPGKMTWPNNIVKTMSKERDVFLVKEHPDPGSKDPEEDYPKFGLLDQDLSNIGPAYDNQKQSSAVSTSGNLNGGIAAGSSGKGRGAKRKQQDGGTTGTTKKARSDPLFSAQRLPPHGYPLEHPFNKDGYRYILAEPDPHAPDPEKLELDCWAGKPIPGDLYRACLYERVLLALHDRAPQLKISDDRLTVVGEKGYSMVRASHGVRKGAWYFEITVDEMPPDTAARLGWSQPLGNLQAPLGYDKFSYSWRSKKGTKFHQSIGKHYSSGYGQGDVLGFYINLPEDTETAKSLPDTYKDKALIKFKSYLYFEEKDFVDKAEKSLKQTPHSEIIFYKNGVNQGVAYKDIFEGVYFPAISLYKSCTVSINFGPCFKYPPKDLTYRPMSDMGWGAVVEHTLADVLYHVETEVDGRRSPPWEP

`Cc1ncsc1-c1ccc([C@H](C)NC(=O)[C@@H]2C[C@@H](O)CN2C(=O)[C@@H](NC(=O)CNC(=O)c2ccc(F)c(-c3ccc(N4C[C@@H](C)N(C)[C@@H](C)C4)c(NC(=O)c4c[nH]c(=O)cc4C(F)(F)F)c3)c2)C(C)(C)C)cc1` [MS67] was tested, and the remaining activity at 10 µM (SET1b Complex; read-out: Enzyme % Activity (relative to DMSO controls) / MS67 / 10 / Data 1:) was 94.9%, the remaining activity at 10 µM (SET1b Complex; read-out: Enzyme % Activity (relative to DMSO controls) / MS67 / 10 / Data 2:) was 92.1% and the inhibition at 1 µM (Beta3) was 32%. For the same compound, the inhibition at 1 µM (KOR) was 26.3%, the inhibition at 1 µM (5-HT5A) was 36.6% and the inhibition at 1 µM (DAT) was 40.8%. The inhibition at 1 µM (Beta2) was -23%, the inhibition at 1 µM (5-HT3) was 26.6% and the inhibition at 1 µM (5-HT1D) was 41.7%. It also gave an inhibition at 1 µM (Sigma 1) of 48.8%, an inhibition at 1 µM (5-HT2B) of 9.31% and an inhibition at 1 µM (M2) of 31.1%. It also gave an inhibition at 1 µM (D4) of 5.81%, an inhibition at 1 µM (M4) of 30.9% and an inhibition at 1 µM (D3) of 22.9%. It also gave an inhibition at 1 µM (Beta1) of 16.9%, an inhibition at 1 µM (SERT) of 8.01% and an inhibition at 1 µM (M5) of 2.36%. The inhibition at 1 µM (5-HT1A) was 14.3%, the inhibition at 1 µM (MOR) was 21.7% and the inhibition at 1 µM (D2) was 25.5%. For the same compound, the inhibition at 1 µM (5-HT2A) was 11%, the inhibition at 1 µM (5-HT1E) was 0.02% and the inhibition at 1 µM (H3) was 21.1%. It also gave an inhibition at 1 µM (H4) of 21.9% and an inhibition at 1 µM (5-HT1B) of 5.37%.
